Test results reported in patent US20210348164A1, “ENDOGENOUS CYTOPLASMIC ALU COMPLEMENTARY DNA IN AGE-RELATED MACULAR DEGENERATION” (University of Virginia Patent Foundation, priority 2018, published 2021).
“Also recorded” adds a separate entry of the source.

Legend:
[1] = test system: Alu RNA-induced RPE degeneration; test: Alu RNA-induced RPE degeneration in wild-type mice (fundus photography, ZO-1 flat mounts); format: in vivo, mouse; conditions: WT mice
Description: Assessment of RPE degeneration. Subretinal injections were performed as previously described (Kaneko et al., 2011; Tarallo et al., 2012; Kerur et al., 2013; Fowler et al., 2014; Kim et al., 2014). Seven days after subretinal injection, RPE health was assessed by fundus photography and immunofluorescence staining of zonula occludens-1 (ZO-1) on RPE flat mounts (whole mount of posterior eye cup containing RPE and choroid layers). Mouse RPE/choroid flat mounts were fixed with 2% paraformaldehyde, stained with rabbit polyclonal antibodies against mouse ZO-1 (1:100; Invitrogen Corp. Carlsbad, Calif., United States of America) and visualized with Alexa-594 (Invitrogen Corp.). All images were obtained by microscopy (Model SP-5 (Leica Microsystems, Inc., Buffalo Grove, Ill., United States of America) or Nikon MR confocal microscope system (Nikon Instruments Inc. Melville, N.Y., United States of America). Imaging was performed by an operator blinded to the group assignments.
Quantification of RPE degeneration. Quantification of RPE degeneration was performed using two methodologies (binary assignment and cellular morphometry) as described previously (Kerur et al., 2018): Binary assignment (healthy versus unhealthy; Kerur et al., 2013; Fowler et al., 2014; Kim et al., 2014; Kerur et al., 2018) was independently performed by two blinded raters (inter-rater agreement=99.7%; Pearson r2=0.986, P<0.0001; Fleiss x=0.993, P<0.0001). Quantifying cellular morphometry for hexagonally packed cells was performed in semi-automated fashion by three masked graders by adapting our previous analysis of the planar architecture of corneal endothelial cell density (Ach et al., 2015), which resembles the RPE in its polygonal tessellation. Polymegethism (coefficient of variation of cell size), a prominent geometric feature of RPE cells in GA (Kaneko et al., 2011; Dridi et al., 2012; Grossniklaus et al., 2013; Ach et al., 2015), was quantified using the Konan Cell Check software (Ver. 4.0.1), a commercial U.S. FDA-cleared software that has been used for registration clinical trials, as previously described (Kerur et al., 2018).
Subretinal and intravitreous injections. Subretinal injections (1 μl for mice, 3 μl for rat) or intravitreous injections (0.5 μl for mice, 2 μl for rat) in mice or rat were performed using a 35-gauge needle (Ito Co. Fuji, Japan). In vivo transfection of Alu RNA or mutant Alu RNA (3.6-300 ng per eye); Alu complementary DNA (cDNA; 0.0036-90 ng per eye); Alu reverse sequence cDNA (3.6-90 ng per eye); or 7SL cDNA (3.6-90 ng per eye) was performed using 10% NEUROPORTER™ transfection reagent (Genlantis, San Diego, Calif., United States of America) as previously described (Kaneko et al., 2011; Tarallo et al., 2012). […]

Alu cDNA = Alu cDNA in RPE flat mounts of Casp1/4 dko mice after subretinal Alu RNA (in situ hybridization); format: in vivo, mouse; conditions: subretinal Alu RNA (or Alu G25C RNA), NNRTIs at high doses
Description: Subretinal and intravitreous injections. Subretinal injections (1 μl for mice, 3 μl for rat) or intravitreous injections (0.5 μl for mice, 2 μl for rat) in mice or rat were performed using a 35-gauge needle (Ito Co. Fuji, Japan). In vivo transfection of Alu RNA or mutant Alu RNA (3.6-300 ng per eye); Alu complementary DNA (cDNA; 0.0036-90 ng per eye); Alu reverse sequence cDNA (3.6-90 ng per eye); or 7SL cDNA (3.6-90 ng per eye) was performed using 10% NEUROPORTER™ transfection reagent (Genlantis, San Diego, Calif., United States of America) as previously described (Kaneko et al., 2011; Tarallo et al., 2012). 3TC, TM-3TC, Cpep-3TC, Cpep, PA-4 3TC, EFV, DLV, or NVP (50 μM/1 μl or 500 μM/1 μl) were administered by intravitreous injection (Mandal et al., 2011; Nasrolahi et al., 2013). 1 μl of cholesterol-conjugated siRNAs (2 μg/μl) targeting mouse LINE1 or Luc (luciferase control; Dharmacon, Lafayette, Colo., United States of America) were subretinally injected three days prior to Alu RNA or vehicle administration. Similarly, in Oryzomys palustris, rat L1 plasmids expressing ORF1p, ORF2p, reverse transcriptase-deficient ORF2p (pORF2 (RT-)), or endonuclease deficient ORF2p (pORF2 (EN-)) were delivered via subretinal injection three days prior to administering Alu RNA or vehicle. The choice of eye for experimental versus control injection was chosen randomly. Rat L1 plasmids expressing ORF1 and ORF2 have been described previously (Kirilyuk et al., 2008). The ORF2 (EN-) construct contained mutations D207A and H232A, which, by CLUSTALW alignment, correspond to human D205A and H230A (see Feng et al., 1996) in the endonuclease domain of ORF2p. The ORF2 (RT-) construct contained mutation D703A, which, by CLUSTALW alignment, corresponds to human D702A (see Moran et al., 1996) in the reverse transcriptase domain of ORF2p.
In situ hybridization. […] Visualization of fluorescein-labelled probe was performed with the TSA™ plus fluorescence system or the TSA™ plus Cy5 system (PerkinElmer). The fluorescent or Cy5 signals were detected using a Leica SP-5 or MR Nikon confocal microscope system.

L1 reverse transcriptase = L1 reverse transcriptase (Homo sapiens, UniProt O00370); conditions: Merluzzi et al., 1990; Dai et al., 2011; cited from earlier work
L1 reverse transcriptase, sequence (O00370 whole entry, looked up): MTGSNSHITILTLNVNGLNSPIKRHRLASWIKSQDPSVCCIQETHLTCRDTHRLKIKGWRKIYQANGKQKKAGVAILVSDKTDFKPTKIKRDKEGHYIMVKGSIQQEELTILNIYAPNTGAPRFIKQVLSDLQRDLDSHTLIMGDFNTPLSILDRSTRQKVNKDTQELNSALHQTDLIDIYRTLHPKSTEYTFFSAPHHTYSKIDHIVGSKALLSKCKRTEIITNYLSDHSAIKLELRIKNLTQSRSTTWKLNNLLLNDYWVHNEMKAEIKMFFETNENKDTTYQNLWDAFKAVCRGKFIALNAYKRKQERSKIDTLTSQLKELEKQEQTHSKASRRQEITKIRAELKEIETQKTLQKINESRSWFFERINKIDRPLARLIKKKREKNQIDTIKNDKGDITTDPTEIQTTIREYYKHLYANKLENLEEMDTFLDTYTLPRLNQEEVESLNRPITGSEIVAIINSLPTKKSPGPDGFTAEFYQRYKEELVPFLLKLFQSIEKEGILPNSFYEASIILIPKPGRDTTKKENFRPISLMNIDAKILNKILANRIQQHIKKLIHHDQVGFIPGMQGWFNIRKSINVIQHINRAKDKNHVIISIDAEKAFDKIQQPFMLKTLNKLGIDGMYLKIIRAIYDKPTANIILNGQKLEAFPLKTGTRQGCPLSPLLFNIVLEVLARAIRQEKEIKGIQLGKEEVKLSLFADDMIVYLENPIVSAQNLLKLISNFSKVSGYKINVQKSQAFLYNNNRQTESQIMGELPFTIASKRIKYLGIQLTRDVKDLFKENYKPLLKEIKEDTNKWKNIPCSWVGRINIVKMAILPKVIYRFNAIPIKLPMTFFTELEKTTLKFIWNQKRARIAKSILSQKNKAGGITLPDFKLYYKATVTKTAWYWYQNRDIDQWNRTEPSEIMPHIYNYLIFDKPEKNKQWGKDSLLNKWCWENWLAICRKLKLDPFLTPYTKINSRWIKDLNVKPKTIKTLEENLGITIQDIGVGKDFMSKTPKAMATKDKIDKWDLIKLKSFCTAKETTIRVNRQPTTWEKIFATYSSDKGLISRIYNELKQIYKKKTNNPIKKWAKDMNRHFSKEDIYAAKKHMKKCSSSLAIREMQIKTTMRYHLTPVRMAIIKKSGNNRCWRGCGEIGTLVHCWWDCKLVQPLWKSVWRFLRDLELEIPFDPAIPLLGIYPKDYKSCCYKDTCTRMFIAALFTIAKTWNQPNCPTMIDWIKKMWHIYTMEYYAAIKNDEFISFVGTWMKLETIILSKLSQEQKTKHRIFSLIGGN

[2] = intravitreous, high (500 μmol) doses

Compound	Alu RNA-induced RPE degeneration [1, 2]	Alu cDNA in RPE in vivo (Alu cDNA)	inhibition of L1 reverse transcriptase (L1 reverse transcriptase)	Alu RNA-induced RPE degeneration ([1]; subretinal cholesterol-conjugated L1 siRNA vs control siRNA)
Cc1ccnc2c1NC(=O)c1cccnc1N2C1CC1 [NVP, nevirapine]	did not prevent Alu RNA-induced RPE degeneration at low or high doses	did not prevent Alu cDNA synthesis	does not inhibit L1 reverse transcriptase	–
CC(C)Nc1cccnc1N1CCN(C(=O)c2cc3cc(NS(C)(=O)=O)ccc3[nH]2)CC1 [DLV, delavirdine]	blocked Alu RNA toxicity; also recorded: inhibited	prevented Alu cDNA formation in vivo; also recorded: blocked endogenous cDNA synthesis	inhibit L1 reverse transcriptase at high doses	–
L1 siRNA: siRNA targeting L1; cholesterol-conjugated mouse L1 siRNA (SEQ ID NOs: 48 and 49) in vivo, human L1 siRNA sequences in human cells (chain 1 ACUAUUACUCUGAUACCTT; chain 2 UGUACUAAGGUCAAAUCTT; cholesterol conjugated, position not given here)	–	–	–	prevented Alu RNA-induced RPE degeneration in wild-type mice; also recorded: blocked Alu RNA induced RPE degeneration
O=C1Nc2ccc(Cl)cc2[C@@](C#CC2CC2)(C(F)(F)F)O1 [EFV, efavirenz]	blocked Alu RNA toxicity; also recorded: inhibited	prevented Alu cDNA formation in vivo; also recorded: blocked endogenous cDNA synthesis	inhibit L1 reverse transcriptase at high doses	–
